{
  "source": "ChEMBL document CHEMBL1134175",
  "about": "“Nipecotic and iso-nipecotic amides as potent and selective somatostatin subtype-2 receptor agonists” (Bioorg Med Chem Lett, 2001)",
  "key": {"[1]": {"molecular_target": "T1, Somatostatin receptor type 2 (Homo sapiens, UniProt P30874)", "T1 sequence (P30874 whole entry)": "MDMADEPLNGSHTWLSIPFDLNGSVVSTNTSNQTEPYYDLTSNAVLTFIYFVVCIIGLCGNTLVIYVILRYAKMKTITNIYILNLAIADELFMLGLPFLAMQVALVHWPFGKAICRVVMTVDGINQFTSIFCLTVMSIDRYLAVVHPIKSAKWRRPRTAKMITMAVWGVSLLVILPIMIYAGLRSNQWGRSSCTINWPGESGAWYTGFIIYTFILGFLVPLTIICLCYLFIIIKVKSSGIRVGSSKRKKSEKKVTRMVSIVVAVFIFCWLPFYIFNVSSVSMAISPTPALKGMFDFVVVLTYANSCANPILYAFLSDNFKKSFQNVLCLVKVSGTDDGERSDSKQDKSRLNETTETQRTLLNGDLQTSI", "test": "Binding affinity to human somatostatin 2 receptor"}, "[2]": {"molecular_target": "Somatostatin receptor type 5 (Homo sapiens, UniProt P35346)", "sequence (P35346 whole entry)": "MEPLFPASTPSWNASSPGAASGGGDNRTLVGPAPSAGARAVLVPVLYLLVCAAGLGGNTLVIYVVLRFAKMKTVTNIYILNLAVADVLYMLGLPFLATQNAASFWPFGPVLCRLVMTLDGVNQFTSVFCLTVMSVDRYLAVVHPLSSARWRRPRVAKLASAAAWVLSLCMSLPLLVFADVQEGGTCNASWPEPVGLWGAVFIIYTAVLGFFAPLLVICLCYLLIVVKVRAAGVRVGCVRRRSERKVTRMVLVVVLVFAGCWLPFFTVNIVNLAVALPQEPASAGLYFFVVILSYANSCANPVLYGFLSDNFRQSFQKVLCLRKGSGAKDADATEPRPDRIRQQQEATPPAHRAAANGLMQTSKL", "test": "Binding affinity to hsst5 was determined"}, "[3]": {"molecular_target": "T1, Somatostatin receptor type 2", "test": "Binding affinity to Somatostatin receptor type 2 was determined"}, "[4]": {"molecular_target": "Somatostatin receptor type 3 (Homo sapiens, UniProt P32745)", "sequence (P32745 whole entry)": "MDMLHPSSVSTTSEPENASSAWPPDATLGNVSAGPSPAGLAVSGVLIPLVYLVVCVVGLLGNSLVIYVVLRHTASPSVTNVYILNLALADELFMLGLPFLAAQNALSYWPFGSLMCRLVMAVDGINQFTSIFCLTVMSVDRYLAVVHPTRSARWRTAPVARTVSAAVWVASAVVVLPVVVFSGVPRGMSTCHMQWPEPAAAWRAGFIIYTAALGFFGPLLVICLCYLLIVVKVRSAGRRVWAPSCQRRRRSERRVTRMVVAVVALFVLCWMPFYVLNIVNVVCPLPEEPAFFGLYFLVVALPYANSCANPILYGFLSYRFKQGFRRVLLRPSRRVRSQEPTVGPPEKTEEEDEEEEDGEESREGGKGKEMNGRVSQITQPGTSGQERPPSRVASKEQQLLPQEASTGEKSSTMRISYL", "test": "Binding affinity to hsst3 was determined"}, "[5]": {"test": "Ratio of binding affinity of h5 to that of binding affinity of h2"}},
  "data": [
    {"compound": "C[C@@H](c1c[nH]c2ccccc12)C(NC(=O)C1CCCNC1)C(=O)N[C@@H](CCCCN)C(=O)OC(C)(C)C", "note": "(stereo not given in full)", "values": [
      {"measurement": "Ki", "setting": "[1]", "value": 178, "unit": "nM"}
    ]},
    {"compound": "C[C@@H](c1c[nH]c2ccccc12)C(NC(=O)C1CCCN(C(=O)Cc2ccc3c(c2)OCO3)C1)C(=O)N[C@@H](CCCCN)C(=O)OC(C)(C)C", "note": "(stereo not given in full)", "values": [
      {"measurement": "Ki", "setting": "[1]", "value": 10, "unit": "nM"}
    ]},
    {"compound": "C[C@@H](c1c[nH]c2ccccc12)C(NC(=O)C1CCCN(Cc2ccc3ccccc3c2)C1)C(=O)N[C@@H](CCCCN)C(=O)OC(C)(C)C", "note": "(stereo not given in full)", "values": [
      {"measurement": "Ki", "setting": "[1]", "value": 17, "unit": "nM"}
    ]},
    {"compound": "COc1cccc(NC(=O)N2CCCC(C(=O)NC(C(=O)N[C@@H](CCCCN)C(=O)OC(C)(C)C)[C@@H](C)c3c[nH]c4ccccc34)C2)c1", "note": "(stereo not given in full)", "values": [
      {"measurement": "Ki", "setting": "[1]", "value": 9, "unit": "nM"}
    ]},
    {"compound": "C[C@@H](c1c[nH]c2ccccc12)C(NC(=O)C1CCCN(C(=O)c2ccccc2)C1)C(=O)N[C@@H](CCCCN)C(=O)OC(C)(C)C", "note": "(stereo not given in full)", "values": [
      {"measurement": "Ki", "setting": "[1]", "value": 10, "unit": "nM"}
    ]},
    {"compound": "C[C@@H](c1c[nH]c2ccccc12)C(NC(=O)C1CCCN(Cc2ccc3c(c2Cl)OCO3)C1)C(=O)N[C@@H](CCCCN)C(=O)OC(C)(C)C", "note": "(stereo not given in full)", "values": [
      {"measurement": "Ki", "setting": "[1]", "value": 12, "unit": "nM"}
    ]},
    {"compound": "C[C@@H](c1c[nH]c2ccccc12)C(NC(=O)C1CCCN(C(=O)c2cccnc2)C1)C(=O)N[C@@H](CCCCN)C(=O)OC(C)(C)C", "note": "(stereo not given in full)", "values": [
      {"measurement": "Ki", "setting": "[1]", "value": 85, "unit": "nM"}
    ]},
    {"compound": "C[C@@H](c1c[nH]c2ccccc12)C(NC(=O)C1CCCN(Cc2ccccc2-c2ccccc2)C1)C(=O)N[C@@H](CCCCN)C(=O)OC(C)(C)C", "note": "(stereo not given in full)", "values": [
      {"measurement": "Ki", "setting": "[1]", "value": 21, "unit": "nM"}
    ]},
    {"compound": "COC(=O)c1cccc(CN2CCCC(C(=O)NC(C(=O)N[C@@H](CCCCN)C(=O)OC(C)(C)C)[C@@H](C)c3c[nH]c4ccccc34)C2)c1", "note": "(stereo not given in full)", "values": [
      {"measurement": "Ki", "setting": "[1]", "value": 11, "unit": "nM"}
    ]},
    {"compound": "COC(=O)[C@H](Cc1ccccc1)NC(=O)N1CCCC(C(=O)NC(C(=O)N[C@@H](CCCCN)C(=O)OC(C)(C)C)[C@@H](C)c2c[nH]c3ccccc23)C1", "note": "(stereo not given in full)", "values": [
      {"measurement": "Ki", "setting": "[1]", "value": 8.6, "unit": "nM"}
    ]},
    {"compound": "CC(C)CC(=O)N1CCCC(C(=O)NC(C(=O)N[C@@H](CCCCN)C(=O)OC(C)(C)C)[C@@H](C)c2c[nH]c3ccccc23)C1", "note": "(stereo not given in full)", "values": [
      {"measurement": "Ki", "setting": "[1]", "value": 23, "unit": "nM"}
    ]},
    {"compound": "C[C@@H](c1c[nH]c2ccccc12)C(NC(=O)C1CCCN(C(=O)C(c2ccccc2)c2ccccc2)C1)C(=O)N[C@@H](CCCCN)C(=O)OC(C)(C)C", "note": "(stereo not given in full)", "values": [
      {"measurement": "Ki", "setting": "[1]", "value": 5, "unit": "nM"}
    ]},
    {"compound": "CC(C)S(=O)(=O)N1CCCC(C(=O)NC(C(=O)N[C@@H](CCCCN)C(=O)OC(C)(C)C)[C@@H](C)c2c[nH]c3ccccc23)C1", "note": "(stereo not given in full)", "values": [
      {"measurement": "Ki", "setting": "[1]", "value": 35, "unit": "nM"}
    ]},
    {"compound": "CC(C)S(=O)(=O)N1CCC(C(=O)NC(C(=O)N[C@@H](CCCCN)C(=O)OC(C)(C)C)[C@@H](C)c2c[nH]c3ccccc23)CC1", "note": "(stereo not given in full)", "values": [
      {"measurement": "Ki", "setting": "[2]", "value": "> 10000", "unit": "nM"},
      {"measurement": "Ki", "setting": "[3]", "value": 120, "unit": "nM"},
      {"measurement": "Ki", "setting": "[4]", "value": 3750, "unit": "nM"},
      {"measurement": "Ratio", "setting": "[5]", "value": "> 83"}
    ]},
    {"compound": "C[C@@H](c1c[nH]c2ccccc12)C(NC(=O)C1CCCN(C(=O)Nc2ccccc2)C1)C(=O)N[C@@H](CCCCN)C(=O)OC(C)(C)C", "note": "(stereo not given in full)", "values": [
      {"measurement": "Ki", "setting": "[1]", "value": 11, "unit": "nM"}
    ]},
    {"compound": "C[C@@H](c1c[nH]c2ccccc12)C(NC(=O)C1CCCN(S(=O)(=O)c2ccc(F)cc2)C1)C(=O)N[C@@H](CCCCN)C(=O)OC(C)(C)C", "note": "(stereo not given in full)", "values": [
      {"measurement": "Ki", "setting": "[1]", "value": 11, "unit": "nM"}
    ]},
    {"compound": "C[C@@H](c1c[nH]c2ccccc12)C(NC(=O)C1CCCN(C(=O)NC2CCCCC2)C1)C(=O)N[C@@H](CCCCN)C(=O)OC(C)(C)C", "note": "(stereo not given in full)", "values": [
      {"measurement": "Ki", "setting": "[1]", "value": 7.2, "unit": "nM"}
    ]},
    {"compound": "C[C@@H](c1c[nH]c2ccccc12)C(NC(=O)C1CCCN(C(c2ccccc2)c2ccccc2)C1)C(=O)N[C@@H](CCCCN)C(=O)OC(C)(C)C", "note": "(stereo not given in full)", "values": [
      {"measurement": "Ki", "setting": "[1]", "value": 31, "unit": "nM"}
    ]},
    {"compound": "C[C@@H](c1c[nH]c2ccccc12)C(NC(=O)C1CCCN(Cc2ccccc2)C1)C(=O)N[C@@H](CCCCN)C(=O)OC(C)(C)C", "note": "(stereo not given in full)", "values": [
      {"measurement": "Ki", "setting": "[1]", "value": 4.6, "unit": "nM"}
    ]},
    {"compound": "C[C@@H](c1c[nH]c2ccccc12)C(NC(=O)C1CCCN(S(=O)(=O)c2cccs2)C1)C(=O)N[C@@H](CCCCN)C(=O)OC(C)(C)C", "note": "(stereo not given in full)", "values": [
      {"measurement": "Ki", "setting": "[1]", "value": 14, "unit": "nM"}
    ]},
    {"compound": "C[C@@H](c1c[nH]c2ccccc12)C(NC(=O)C1CCN(C(=O)c2ccccc2)CC1)C(=O)N[C@@H](CCCCN)C(=O)OC(C)(C)C", "note": "(stereo not given in full)", "values": [
      {"measurement": "Ki", "setting": "[2]", "value": 416, "unit": "nM"},
      {"measurement": "Ki", "setting": "[3]", "value": 0.5, "unit": "nM"},
      {"measurement": "Ki", "setting": "[4]", "value": 2660, "unit": "nM"},
      {"measurement": "Ratio", "setting": "[5]", "value": 832}
    ]},
    {"compound": "C[C@@H](c1c[nH]c2ccccc12)C(NC(=O)C1CCCN(Cc2cccc(F)c2)C1)C(=O)N[C@@H](CCCCN)C(=O)OC(C)(C)C", "note": "(stereo not given in full)", "values": [
      {"measurement": "Ki", "setting": "[1]", "value": 5, "unit": "nM"}
    ]},
    {"compound": "CC(C)C(=O)N1CCC(C(=O)NC(C(=O)N[C@@H](CCCCN)C(=O)OC(C)(C)C)[C@@H](C)c2c[nH]c3ccccc23)CC1", "note": "(stereo not given in full)", "values": [
      {"measurement": "Ki", "setting": "[2]", "value": 2860, "unit": "nM"},
      {"measurement": "Ki", "setting": "[3]", "value": 15, "unit": "nM"},
      {"measurement": "Ki", "setting": "[4]", "value": 5250, "unit": "nM"},
      {"measurement": "Ratio", "setting": "[5]", "value": 190}
    ]},
    {"compound": "C[C@@H](c1c[nH]c2ccccc12)C(NC(=O)C1CCCN(Cc2ccc(F)c(F)c2)C1)C(=O)N[C@@H](CCCCN)C(=O)OC(C)(C)C", "note": "(stereo not given in full)", "values": [
      {"measurement": "Ki", "setting": "[1]", "value": 2.9, "unit": "nM"}
    ]},
    {"compound": "COc1ccc(S(=O)(=O)N2CCCC(C(=O)NC(C(=O)N[C@@H](CCCCN)C(=O)OC(C)(C)C)[C@@H](C)c3c[nH]c4ccccc34)C2)cc1OC", "note": "(stereo not given in full)", "values": [
      {"measurement": "Ki", "setting": "[1]", "value": 23, "unit": "nM"}
    ]},
    {"compound": "C[C@@H](c1c[nH]c2ccccc12)C(NC(=O)C1CCN(Cc2ccccc2)CC1)C(=O)N[C@@H](CCCCN)C(=O)OC(C)(C)C", "note": "(stereo not given in full)", "values": [
      {"measurement": "Ki", "setting": "[2]", "value": 333, "unit": "nM"},
      {"measurement": "Ki", "setting": "[3]", "value": 2.5, "unit": "nM"},
      {"measurement": "Ratio", "setting": "[5]", "value": 133}
    ]},
    {"compound": "COc1cccc(CN2CCCC(C(=O)NC(C(=O)N[C@@H](CCCCN)C(=O)OC(C)(C)C)[C@@H](C)c3c[nH]c4ccccc34)C2)c1", "note": "(stereo not given in full)", "values": [
      {"measurement": "Ki", "setting": "[1]", "value": 10, "unit": "nM"}
    ]},
    {"compound": "C[C@@H](c1c[nH]c2ccccc12)C(NC(=O)C1CCCN(Cc2cccc(F)c2F)C1)C(=O)N[C@@H](CCCCN)C(=O)OC(C)(C)C", "note": "(stereo not given in full)", "values": [
      {"measurement": "Ki", "setting": "[1]", "value": 5.7, "unit": "nM"}
    ]},
    {"compound": "CC(=O)Nc1cccc(C(=O)N2CCCC(C(=O)NC(C(=O)N[C@@H](CCCCN)C(=O)OC(C)(C)C)[C@@H](C)c3c[nH]c4ccccc34)C2)c1", "note": "(stereo not given in full)", "values": [
      {"measurement": "Ki", "setting": "[1]", "value": 47, "unit": "nM"}
    ]},
    {"compound": "C[C@@H](c1c[nH]c2ccccc12)C(NC(=O)C1CCCN(C(=O)c2ccc3c(c2)OCO3)C1)C(=O)N[C@@H](CCCCN)C(=O)OC(C)(C)C", "note": "(stereo not given in full)", "values": [
      {"measurement": "Ki", "setting": "[1]", "value": 36, "unit": "nM"}
    ]},
    {"compound": "CC(C)NC(=O)N1CCCC(C(=O)NC(C(=O)N[C@@H](CCCCN)C(=O)OC(C)(C)C)[C@@H](C)c2c[nH]c3ccccc23)C1", "note": "(stereo not given in full)", "values": [
      {"measurement": "Ki", "setting": "[1]", "value": 95, "unit": "nM"}
    ]},
    {"compound": "C[C@@H](c1c[nH]c2ccccc12)C(NC(=O)C1CCCN(C(=O)Cc2cc(F)cc(F)c2)C1)C(=O)N[C@@H](CCCCN)C(=O)OC(C)(C)C", "note": "(stereo not given in full)", "values": [
      {"measurement": "Ki", "setting": "[1]", "value": 2.3, "unit": "nM"}
    ]},
    {"compound": "C[C@@H](c1c[nH]c2ccccc12)C(NC(=O)C1CCCN(C(=O)c2ccc3[nH]cnc3c2)C1)C(=O)N[C@@H](CCCCN)C(=O)OC(C)(C)C", "note": "(stereo not given in full)", "values": [
      {"measurement": "Ki", "setting": "[1]", "value": 85, "unit": "nM"}
    ]},
    {"compound": "C[C@@H](c1c[nH]c2ccccc12)C(NC(=O)C1CCCN(C(=O)C(O)(c2ccccc2)c2ccccc2)C1)C(=O)N[C@@H](CCCCN)C(=O)OC(C)(C)C", "note": "(stereo not given in full)", "values": [
      {"measurement": "Ki", "setting": "[1]", "value": 2.8, "unit": "nM"}
    ]}
  ]
}
